Laboratory results from patent publication US20180334436A1 (VIIV HEALTHCARE UK LIMITED, priority 2015, published 2018).

System: HIV
Assay: MT4 assay (anti-HIV activity)
Format: cell-based
Conditions: Human immunodeficiency virus 1, 96 h, antiviral HIV activity in HTLV-1 transformed cell line MT-4; luciferase read 96 hours later; 10 point dose response
Method: Antiviral HIV activity and cytotoxicity values for compounds of the invention from Table 1 were measured in parallel in the HTLV-1 transformed cell line MT-4 based on the method previously described (Hazen et al., 2007, In vitro antiviral activity of the novel, tyrosyl-based human immunodeficiency virus (HIV) type 1 protease inhibitor brecanavir (GW640385) in combination with other antiretrovirals and against a panel of protease inhibitor-resistant HIV (Hazen et al., “In vitro antiviral activity of the novel, tyrosyl-based human immunodeficiency virus (HIV) type 1 protease inhibitor brecanavir (GW640385) in combination with other antiretrovirals and against a panel of protease inhibitor-resistant HIV”, Antimicrob. Agents Chemother. 2007, 51: 3147-3154; and Pauwels et al., “Sensitive and rapid assay on MT-4 cells for the detection of antiviral compounds against the AIDS virus”, J. of Virological Methods 1987, 16: 171-185).
Luciferase activity was measured 96 hours later by adding a cell titer glo (Promega, Madison, Wis.). Percent inhibition of cell protection data was plotted relative to no compound control. Under the same condition, cytotoxicity of the compounds was determined using cell titer Glo™ (Promega, Madison, Wis.). IC50s were determined from a 10 point dose response curve using 3-4-fold serial dilution for each compound, which spans a concentration range >1000 fold.
These values are plotted against the molar compound concentrations using the standard four parameter logistic equation:
y=((Vmax*x̂n)/(K̂n+x̂n))+Y2
Y2=minimum y n=slope factor
Vmax=maximum y x=compound concentration [M]

SMILES: Cc1ccc(-c2c(C)c3c(c(C)c2[C@H](OC(C)(C)C)C(=O)O)CCN(C2CCCCCC2)C3)cc1 [Example 50, (S)-2-(tert-butoxy)-2-(2-cycloheptyl-5,8-dimethyl-7-(p-tolyl)-1,2,3,4-tetrahydroisoquinolin-6-yl)acetic Acid]
- IC50: 5 nM

SMILES: Cc1c(-c2c(C)c3c(c(C)c2[C@H](OC(C)(C)C)C(=O)O)CCN(S(=O)(=O)C2CCCCC2)C3)cc(F)c2c1CCCO2 [Example 80, (S)-2-(tert-Butoxy)-2-((R)-2-(cyclohexylsulfonyl)-7-(8-fluoro-5-methylchroman-6-yl)-5,8-dimethyl-1,2,3,4-tetrahydroisoquinolin-6-yl)acetic Acid]
- IC50: 13 nM

SMILES: Cc1ccc(-c2c(C)c3c(c(C)c2C(OC(C)(C)C)C(=O)O)CN(C(=O)N2CCCCC2)CC3)cc1 (stereo not drawn) [Example 9, 2-(tert-Butoxy)-2-(5,8-dimethyl-2-(piperidine-1-carbonyl)-6-(p-tolyl)-1,2,3,4-tetrahydroisoquinolin-7-yl)acetic Acid]
- IC50: 38 nM

SMILES: Cc1ccc(-c2c(C)c3c(c(C)c2C(OC(C)(C)C)C(=O)O)CN(C(=O)C2CCCCC2)CC3)cc1 (stereo not drawn) [Example 4, 2-(tert-Butoxy)-2-(2-(cyclohexanecarbonyl)-5,8-dimethyl-6-(p-tolyl)-1,2,3,4-tetrahydroisoquinolin-7-yl)acetic Acid]
- IC50: 323 nM

SMILES: Cc1c(-c2c(C)c3c(c(C)c2[C@H](OC(C)(C)C)C(=O)O)C(C)(C)C(=O)N(C2CCCCC2)C3)cc(F)c2c1CCCO2 (atropisomer, axis not shown) [Example 109]
- IC50: 4 nM

SMILES: Cc1ccc(-c2c(C)c3c(c(C)c2C(OC(C)(C)C)C(=O)O)CN(Cc2ccccc2)C(=O)C3)cc1 (stereo not drawn) [Example 99, 2-(2-Benzyl-5,8-dimethyl-3-oxo-6-(p-tolyl)-1,2,3,4-tetrahydroisoquinolin-7-yl)-2-(tert-butoxy)acetic Acid]
- IC50: 3300 nM

SMILES: Cc1ccc(-c2c(C)c3c(c(C)c2[C@H](OC(C)(C)C)C(=O)O)CCN(C(=O)c2ccccn2)C3)cc1 [Example 42, (S)-2-(tert-butoxy)-2-(5,8-dimethyl-2-picolinoyl-7-(p-tolyl)-1,2,3,4-tetrahydroisoquinolin-6-yl)acetic Acid]
- IC50: 1140 nM

SMILES: Cc1c(-c2c(C)c3c(c(C)c2[C@H](OC(C)(C)C)C(=O)O)CCN(C2CCCCC2)C3)ccc2c1CCCO2 (atropisomer, axis not shown; (M)) [Example 84, (S)(M)-2-(tert-butoxy)-2-(2-cyclohexyl-5,8-dimethyl-7-(5-methylchroman-6-yl)-1,2,3,4-tetrahydroisoquinolin-6-yl)acetic Acid]
- IC50: 5 nM

SMILES: Cc1ccc(-c2c(C)c3c(c(C)c2[C@H](OC(C)(C)C)C(=O)O)CCN(S(=O)(=O)C2CCCC2)C3)cc1 [Example 65, (S)-2-(tert-butoxy)-2-(2-(cyclopentylsulfonyl)-5,8-dimethyl-7-(p-tolyl)-1,2,3,4-tetrahydroisoquinolin-6-yl)acetic Acid]
- IC50: 12 nM

SMILES: COc1c(F)cccc1S(=O)(=O)N1CCc2c(C)c([C@H](OC(C)(C)C)C(=O)O)c(-c3ccc(C)cc3)c(C)c2C1 [Example 64, (S)-2-(tert-butoxy)-2-(2-((3-fluoro-2-methoxyphenyl)sulfonyl)-5,8-dimethyl-7-(p-tolyl)-1,2,3,4-tetrahydroisoquinolin-6-yl)acetic Acid]
- IC50: 89 nM

SMILES: Cc1c(-c2c(C)c3c(c(C)c2[C@H](OC(C)(C)C)C(=O)O)CCN(C2CCC(C)(C)CC2)C3)cc(F)c2c1CCCO2 [Example 81, (S)-2-(tert-Butoxy)-2-((R)-2-(4,4-dimethylcyclohexyl)-7-(8-fluoro-5-methylchroman-6-yl)-5,8-dimethyl-1,2,3,4-tetrahydroisoquinolin-6-yl)acetic Acid]
- IC50: 4 nM

SMILES: Cc1ccc(-c2c(C)c3c(c(C)c2[C@H](OC(C)(C)C)C(=O)O)CCN(C(=O)c2cccnc2)C3)cc1 [Example 43, (S)-2-(tert-butoxy)-2-(5,8-dimethyl-2-nicotinoyl-7-(p-tolyl)-1,2,3,4-tetrahydroisoquinolin-6-yl)acetic Acid]
- IC50: 635 nM

SMILES: Cc1ccc(-c2c(C)c3c(c(C)c2[C@H](OC(C)(C)C)C(=O)O)CCN(C2CC4CCC(C4)C2)C3)cc1 (stereo partly drawn) [Example 74, (2S)-2-(2-(bicyclo[3.2.1]octan-3-yl)-5,8-dimethyl-7-(p-tolyl)-1,2,3,4-tetrahydroisoquinolin-6-yl)-2-(tert-butoxy)acetic Acid]
- IC50: 12 nM

SMILES: Cc1ccc(-c2c(C)c3c(c(C)c2[C@H](OC(C)(C)C)C(=O)O)CCN(C(=O)c2ccncc2)C3)cc1 [Example 44, (S)-2-(tert-butoxy)-2-(2-isonicotinoyl-5,8-dimethyl-7-(p-tolyl)-1,2,3,4-tetrahydroisoquinolin-6-yl)acetic Acid]
- IC50: 1010 nM

SMILES: COc1ccc(C(=O)N2CCc3c(C)c([C@H](OC(C)(C)C)C(=O)O)c(-c4cc(F)c5c(c4C)CCCO5)c(C)c3C2)cc1C (atropisomer, axis not shown) [Example 97, (S)-2-(tert-butoxy)-2-((R)-7-(8-fluoro-5-methylchroman-6-yl)-2-(4-methoxy-3-methylbenzoyl)-5,8-dimethyl-1,2,3,4-tetrahydroisoquinolin-6-yl)acetic Acid]
- IC50: 36 nM

SMILES: Cc1ccc(-c2c(C)c3c(c(C)c2[C@H](OC(C)(C)C)C(=O)O)CCN(C(=O)C(=O)N2CCCCC2)C3)cc1 [Example 46, (S)-2-(tert-butoxy)-2-(5,8-dimethyl-2-(2-oxo-2-(piperidin-1-yl)acetyl)-7-(p-tolyl)-1,2,3,4-tetrahydroisoquinolin-6-yl)acetic Acid]
- IC50: 276 nM

SMILES: Cc1ccc(-c2c(C)c3c(c(C)c2C(OC(C)(C)C)C(=O)O)CN(c2ccccc2)CC3)cc1 (stereo not drawn) [Example 8, 2-(tert-Butoxy)-2-(5,8-dimethyl-2-phenyl-6-(p-tolyl)-1,2,3,4-tetrahydroisoquinolin-7-yl)acetic Acid]
- IC50: 6480 nM

SMILES: Cc1ccc(-c2c(C)c3c(c(C)c2[C@H](OC(C)(C)C)C(=O)O)CN(C(=O)N2CCCCC2)CC3)cc1 [Example 12, (S)-2-(tert-Butoxy)-2-(5,8-dimethyl-2-(piperidine-1-carbonyl)-6-(p-tolyl)-1,2,3,4-tetrahydroisoquinolin-7-yl)acetic Acid]
- IC50: 139 nM

SMILES: Cc1ccc(-c2c(C)c3c(c(C)c2[C@H](OC(C)(C)C)C(=O)O)CN(C(=O)N2CCC(C)(C)CC2)CC3)cc1 [Example 13, (S)-2-(tert-Butoxy)-2-(2-(4,4-dimethylpiperidine-1-carbonyl)-5,8-dimethyl-6-(p-tolyl)-1,2,3,4-tetrahydroisoquinolin-7-yl)acetic Acid]
- IC50: 129 nM

SMILES: Cc1ccc(-c2c(C)c3c(c(C)c2[C@H](OC(C)(C)C)C(=O)O)CCN(CCC2CCCCC2)C3)cc1 [Example 39, (S)-2-(tert-butoxy)-2-(2-(2-cyclohexylethyl)-5,8-dimethyl-7-(p-tolyl)-1,2,3,4-tetrahydroisoquinolin-6-yl)acetic Acid]
- IC50: 225 nM

SMILES: Cc1ccc(-c2c(C)c3c(c(C)c2C(OC(C)(C)C)C(=O)O)CN(CC(=O)N2CCCCC2)CC3)cc1 (stereo not drawn) [Example 7, 2-(tert-Butoxy)-2-(5,8-dimethyl-2-(2-oxo-2-(piperidin-1-yl)ethyl)-6-(p-tolyl)-1,2,3,4-tetrahydroisoquinolin-7-yl)acetic Acid]
- IC50: 418 nM

SMILES: Cc1ccc(-c2c(C)c3c(c(C)c2[C@H](OC(C)(C)C)C(=O)O)CN(C(=O)CC2CCCCC2)CC3)cc1 [Example 37, (S)-2-(tert-butoxy)-2-(2-(2-cyclohexylacetyl)-5,8-dimethyl-6-(p-tolyl)-1,2,3,4-tetrahydroisoquinolin-7-yl)acetic Acid]
- IC50: 118 nM

SMILES: Cc1c(-c2c(C)c3c(c(C)c2[C@H](OC(C)(C)C)C(=O)O)CC(=O)N(C2CCOCC2)C3)cc(F)c2c1CCCO2 (atropisomer, axis not shown) [Example 108, (S)-2-(tert-butoxy)-2-((R)-7-(8-fluoro-5-methylchroman-6-yl)-5,8-dimethyl-3-oxo-2-(tetrahydro-2H-pyran-4-yl)-1,2,3,4-tetrahydroisoquinolin-6-yl)acetic Acid]
- IC50: 13 nM

SMILES: Cc1c(-c2c(C)c3c(c(C)c2[C@H](OC(C)(C)C)C(=O)O)CC(=O)N(C2CCC(F)(F)CC2)C3)cc(F)c2c1CCCO2 (atropisomer, axis not shown) [Example 114, (S)-2-(tert-butoxy)-2-((R)-2-(4,4-difluorocyclohexyl)-7-(8-fluoro-5-methylchroman-6-yl)-5,8-dimethyl-3-oxo-1,2,3,4-tetrahydroisoquinolin-6-yl)acetic Acid]
- IC50: 3 nM

SMILES: Cc1c(-c2c(C)c3c(c(C)c2[C@H](OC(C)(C)C)C(=O)O)CCN(C(=O)c2ccc(C(F)(F)F)cc2)C3)cc(F)c2c1CCCO2 [Example 94, (S)-2-(tert-Butoxy)-2-((R)-7-(8-fluoro-5-methylchroman-6-yl)-5,8-dimethyl-2-(4-(trifluoromethyl)benzoyl)-1,2,3,4-tetrahydroisoquinolin-6-yl)acetic Acid]
- IC50: 384 nM

SMILES: Cc1ccc(-c2c(C)c3c(c(C)c2[C@H](OC(C)(C)C)C(=O)O)CCN(C2CCC[C@@H](C)C2)C3)cc1 (single isomer, unassigned) [Example 71]
- IC50: 14 nM

SMILES: Cc1ccc(-c2c(C)c3c(c(C)c2[C@H](OC(C)(C)C)C(=O)O)CCN(S(=O)(=O)C2CCCCC2)C3)cc1 [Example 45, (S)-2-(tert-butoxy)-2-(2-(cyclohexylsulfonyl)-5,8-dimethyl-7-(p-tolyl)-1,2,3,4-tetrahydroisoquinolin-6-yl)acetic Acid]
- IC50: 17 nM
